What is called IC50 is the concentration needed to halve the response being measured. High values mean lower potency, low ones higher potency. By Ki is commonly meant the dissociation constant of the complex between target and ligand, obtained from inhibition or displacement. Low values mean a stronger hold on the target, high ones a looser hold on the target.

In assay [1] the target is Dihydroorotate dehydrogenase (quinone), mitochondrial (Homo sapiens, UniProt Q02127).
Description: Inhibition of ubiquinone binding site of human dihydroorotate dehydrogenase
The target in assay [2] is T1, Dihydroorotate dehydrogenase (Plasmodium falciparum, UniProt Q54A96).
T1 sequence (Q54A96 whole entry): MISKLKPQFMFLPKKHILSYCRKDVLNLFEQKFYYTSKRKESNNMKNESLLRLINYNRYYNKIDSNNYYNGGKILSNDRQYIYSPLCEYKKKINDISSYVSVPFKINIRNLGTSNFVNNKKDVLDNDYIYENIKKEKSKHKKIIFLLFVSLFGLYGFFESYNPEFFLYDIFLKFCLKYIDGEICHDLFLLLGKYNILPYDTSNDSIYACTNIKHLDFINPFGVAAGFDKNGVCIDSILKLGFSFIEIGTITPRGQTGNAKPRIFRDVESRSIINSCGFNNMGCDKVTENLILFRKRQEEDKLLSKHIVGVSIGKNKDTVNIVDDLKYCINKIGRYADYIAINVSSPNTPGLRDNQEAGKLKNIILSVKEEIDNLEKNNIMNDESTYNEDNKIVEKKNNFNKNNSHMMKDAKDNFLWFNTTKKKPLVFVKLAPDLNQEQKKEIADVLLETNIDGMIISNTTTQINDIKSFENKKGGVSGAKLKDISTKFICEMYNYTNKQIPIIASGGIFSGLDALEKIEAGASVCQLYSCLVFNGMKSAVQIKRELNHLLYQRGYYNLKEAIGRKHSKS
Description: Inhibition of ubiquinone binding site of Plasmodium falciparum dihydroorotate dehydrogenase

Each structure is given as a SMILES string.

Sequence of Dihydroorotate dehydrogenase (quinone), mitochondrial (Q02127 whole entry): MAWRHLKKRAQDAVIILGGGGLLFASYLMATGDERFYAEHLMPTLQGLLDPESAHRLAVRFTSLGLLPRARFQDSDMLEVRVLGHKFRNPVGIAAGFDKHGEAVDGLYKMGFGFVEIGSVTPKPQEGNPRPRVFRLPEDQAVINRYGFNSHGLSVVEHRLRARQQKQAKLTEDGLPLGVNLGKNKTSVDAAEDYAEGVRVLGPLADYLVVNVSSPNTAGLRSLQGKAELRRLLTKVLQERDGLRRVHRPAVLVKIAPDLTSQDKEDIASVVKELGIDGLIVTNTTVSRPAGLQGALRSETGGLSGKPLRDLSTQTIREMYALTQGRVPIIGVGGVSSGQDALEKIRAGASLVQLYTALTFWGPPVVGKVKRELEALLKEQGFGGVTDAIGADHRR

For the compound `C/C(O)=C(\C#N)C(=O)Nc1ccc(-c2ccccc2Cl)cc1`, in assay [1], half-maximal inhibition (IC50) required 130 nM and the affinity, expressed as Ki, was 16 nM. In assay [2], this compound registered an IC50 of 47.4 µM and an inhibition constant Ki of 5.6 µM.
The corresponding values for `C/C(O)=C(\C#N)C(=O)Nc1ccc(-c2cccc(Cl)c2)cc1Cl` are 1520 nM, 190 nM, 49.1 µM and 5.8 µM.
In assay [1], `N#C/C(C(=O)Nc1ccc(-c2ccccc2)cc1)=C(/O)C1CC1` returned an IC50 of 53 nM and a Ki of 7 nM.
As to `COc1ccccc1-c1ccc(NC(=O)/C(C#N)=C(/C)O)c(Cl)c1`, in assay [1], the IC50 turned out to be 200 nM and the affinity corresponds to a Ki of 25 nM. Further, in assay [2], inhibition was half-maximal at 8.6 µM (IC50) and affinity was put at a Ki of 1 µM.
In assay [1], `C/C(O)=C(\C#N)C(=O)Nc1ccc(-c2c(Cl)cccc2Cl)cc1Cl` showed an IC50 of 16500 nM and a Ki of 2000 nM. In assay [2], this compound showed an IC50 of 10.2 µM and a Ki of 1.2 µM.
In assay [1], `C/C(O)=C(\C#N)C(=O)Nc1ccc(-c2ccccc2Cl)cc1C(F)(F)F` showed an IC50 of 170 nM and a Ki of 21 nM. Besides, in assay [2], the midpoint of inhibition, the IC50, lay at 6.2 µM and the Ki stood at 0.73 µM.
For `C/C(O)=C(\C#N)C(=O)Nc1ccc(-c2cccc(Cl)c2)cc1C(F)(F)F` the same measures were 86600 nM, 10700 nM, 57.2 µM and 6.8 µM.
For `CCOc1cccc(-c2ccc(NC(=O)/C(C#N)=C(/C)O)cc2)c1` the same measures were 130 nM, 16 nM, 182 µM and 21.5 µM.
In assay [1], `C/C(O)=C(\C#N)C(=O)Nc1ccc(-c2cccc(Cl)c2Cl)cc1Cl` returned an IC50 of 330 nM and a Ki of 40 nM. In addition, in assay [2], 9.9 µM corresponded to half-maximal inhibition (IC50) and the affinity, expressed as Ki, was 1.2 µM.
Consider `C/C(O)=C(\C#N)C(=O)Nc1ccc(-c2ccccc2Cl)c(Cl)c1`, for which the IC50 in assay [1] was determined as 22 nM; in assay [2], 165 µM. Moreover, the Ki was found to be 2.7 nM in assay [1] and 20.5 µM in assay [2].
In the case of `C/C(O)=C(\C#N)C(=O)Nc1ccc(-c2ccccc2)cc1Cl`, the IC50 in assay [1] was 320 nM; in assay [2], 51.1 µM. The values for the inhibitory constant (Ki) in assay [1] and in assay [2] were 39 nM and 6 µM, respectively.
For `C/C(O)=C(\C#N)C(=O)Nc1ccc(-c2ccccc2)cc1` the same measures were 90 nM, 25.7 µM, 11 nM and 3 µM.
The corresponding values for `C/C(O)=C(\C#N)C(=O)Nc1ccc(-c2ccccc2Cl)cc1Cl` are 180 nM, 4 µM, 22 nM and 0.48 µM.
Take `N#C/C(C(=O)Nc1ccc(C(F)(F)F)cc1)=C(/O)C1CC1`: the IC50 in assay [1] was determined as 117 nM; in assay [2], 92.5 µM. The Ki in assay [1] came out at 14 nM; in assay [2], 11 µM.
In assay [1], `C/C(O)=C(\C#N)C(=O)Nc1ccc(-c2cccc(Cl)c2Cl)cc1` displayed an IC50 of 200 nM and a Ki of 25 nM. In addition, in assay [2], the IC50 is 27.2 µM and the Ki was found to be 3.2 µM.
For `C/C(O)=C(\C#N)C(=O)Nc1ccc(-c2cccc(Cl)c2)c(Cl)c1` the same measures were 190 nM, 23 nM, 237 µM and 28 µM.

(Values after ChEMBL document CHEMBL1138463, “Structure-based design, synthesis, and characterization of inhibitors of human and Plasmodium falciparum dihydroorotate dehydrogenases” (J Med Chem, 2009).)
